Source: US20020031795A1, “Nitrocoumarins for detecting all micro-organisms” (priority 1998, published 2002)

Tests used:
Assay in all cases: Fluorescence after 24 hours, serial dilutions in Trypticase Soy broth
Type in all cases: cell-based
[1] = system: Candida albicans (ATCC 90028); details: for Fluorescence reading: 24 hours
Description: (§1) This experiment was performed to test 7-nitrocoumarin-3-carboxylic acid on sixteen (16) different types of microorganism, including one yeast species.
(§2) A mass of 10 mg of the indicator was dissolved in 4 ml of hot, distilled water and this solution was then added to 96 ml of Trypticase Soy broth. The resultant mixture was sterile-filtered.
[…] Each culture was then diluted 1,000-fold in Trypticase Soy broth and then serial 10-fold dilutions were made in more Trypticase Soy broth until the test aliquot contained no more microbial cells.
(§3) The resultant dilutions ranged from 10^−3 to 10^−13.
(§4) Fifty microliters of each dilution plus 50 μl of Trypticase Soy broth were added to wells of a microtiter plate with or without 7-nitrocoumarin-3-carboxylic acid.
(§5) The plates were read (T zero) and then incubated at 35° C. before being read again after 24 hours. Two different readings were made at each time point:
(§6) of the fluorescence (excitation at 365 nm and emission at 440 nm), using a Biolite F1 2001 fluorometer (Labtech International Limited), for wells containing 7-nitrocoumarin-3-carboxylic acid.

[2] = system: Pseudomonas fluorescens (ATCC 13525)
Description: as §1, §2
(§7) All the microorganisms were grown for 24 hours in Trypticase Soy broth at 35° C. Each culture was then diluted 1,000-fold in Trypticase Soy broth and then serial 10-fold dilutions were made in more Trypticase Soy broth until the test aliquot contained no more microbial cells.
as §3, §4, §5, §6

[3] = system: Brevundimonas vesicularis (ATCC 11426)
Description: as §1, §2, §7, §3, §4, §5, §6

[4] = system: Acinetobacter calcoaceticus (ATCC 7844)
Description: as §1, §2, §7, §3, §4, §5, §6

[5] = system: Acinetobacter baumanii (ATCC 19606)
Description: as §1, §2, §7, §3, §4, §5, §6

Question: Which results are given for `O=C(O)c1cc2ccc([N+](=O)[O-])cc2oc1=O` [7-nitrocoumarin-3-carboxylic acid]?
Answer: Fluorescence reading ([1]; dilution 10^−3): 2847; Fluorescence reading ([1]; dilution 10^−4): 2609; Fluorescence reading ([1]; dilution 10^−5): 2335; Fluorescence reading ([1]; dilution 10^−6): 2041; Fluorescence reading ([1]; dilution 10^−7): 1693; Fluorescence reading ([1]; dilution 10^−8): 1745; Fluorescence reading ([1]; dilution 10^−9): 1693; Fluorescence reading ([1]; dilution 10^−10): 1751; Fluorescence reading ([1]; dilution 10^−11): 1666; Fluorescence reading ([1]; dilution 10^−12): 1702; Fluorescence reading ([1]; dilution 10^−13): 1666; Fluorescent signal compared with bacteria (in words) ([1]; RPMI medium, results not presented): comparable to that generated by the bacteria; Fluorescent signal compared with bacteria (in words) ([1]; Trypticase Soy broth): only a faint fluorescent signal; Fluorescence reading ([2]; dilution 10^−3): 8985; Fluorescence reading ([2]; dilution 10^−4): 1774; Fluorescence reading ([2]; dilution 10^−5): 1657; Fluorescence reading ([2]; dilution 10^−6): 1625; Fluorescence reading ([2]; dilution 10^−7): 1716; Fluorescence reading ([2]; dilution 10^−8): 1690; Fluorescence reading ([2]; dilution 10^−9): 1736; Fluorescence reading ([2]; dilution 10^−10): 1666; Fluorescence reading ([2]; dilution 10^−11): 1691; Fluorescence reading ([2]; dilution 10^−12): 1666; Fluorescence reading ([2]; dilution 10^−13): 1624; Fluorescence reading ([3]; dilution 10^−3): 2543; Fluorescence reading ([3]; dilution 10^−4): 1962; Fluorescence reading ([3]; dilution 10^−5): 1861; Fluorescence reading ([3]; dilution 10^−6): 1941; Fluorescence reading ([3]; dilution 10^−7): 1928; Fluorescence reading ([3]; dilution 10^−8): 1889; Fluorescence reading ([3]; dilution 10^−9): 1929; Fluorescence reading ([3]; dilution 10^−10): 1910; Fluorescence reading ([3]; dilution 10^−11): 1938; Fluorescence reading ([3]; dilution 10^−12): 1919; Fluorescence reading ([3]; dilution 10^−13): 1877; Fluorescence reading ([4]; dilution 10^−3): 29657; Fluorescence reading ([4]; dilution 10^−4): 18288; Fluorescence reading ([4]; dilution 10^−5): 12311; Fluorescence reading ([4]; dilution 10^−6): 12223; Fluorescence reading ([4]; dilution 10^−7): 11635; Fluorescence reading ([4]; dilution 10^−8): 14858; Fluorescence reading ([4]; dilution 10^−9): 13353; Fluorescence reading ([4]; dilution 10^−10): 10862; Fluorescence reading ([4]; dilution 10^−11): 1712; Fluorescence reading ([4]; dilution 10^−12): 1654; Fluorescence reading ([4]; dilution 10^−13): 1699; Fluorescence reading ([5]; dilution 10^−3): 27016; Fluorescence reading ([5]; dilution 10^−4): 11695; Fluorescence reading ([5]; dilution 10^−5): 12525; Fluorescence reading ([5]; dilution 10^−6): 8912; Fluorescence reading ([5]; dilution 10^−7): 6953; Fluorescence reading ([5]; dilution 10^−8): 1651; Fluorescence reading ([5]; dilution 10^−9): 1705; Fluorescence reading ([5]; dilution 10^−10): 1718; Fluorescence reading ([5]; dilution 10^−11): 1678; Fluorescence reading ([5]; dilution 10^−12): 1687; Fluorescence reading ([5]; dilution 10^−13): 1660
